What was measured:
[1] = biological target: M1 (Homo sapiens, UniProt P11229); assay: In vitro receptor binding, M1; conditions: read-out: In vitro testing data (receptor binding affinity), M1
Experimental: (§1) Three of the compounds predicted to display antipsychotic activity have been synthesized and characterized. Once compounds meeting selection criteria of the spectral models were identified, confirmatory in vitro screening and cross-screening were conducted. For example, receptor binding studies were conducted for 5-HT1A, 5-HT2A, 5-HT2C, 5-HT6, 5-HT7, α1A, α1B, α1D, α2A, α2B, α2C, D2, H1, M1, M2, M3, M4, and M5 to further determine a broad pharmacological profile for compounds meeting spectral modeling selection criteria. Synthesis and characterization of these compounds is provided as an Experimental Example. […] For D2 and 5-HT2A receptors, experimental results were within 11% of predicted values. […] In some embodiments, the compounds are selective for 5-HT2A over D2. […] As such the compounds are advantageous over clozapine and may be beneficial for treating psychotic conditions, such as schizophrenia.

[2] = biological target: H1 (Homo sapiens, UniProt P35367); assay: In vitro receptor binding, H1; conditions: read-out: In vitro testing data (receptor binding affinity), H1
Experimental: as §1

[3] = biological target: Alpha 2C (Homo sapiens, UniProt P18825); assay: In vitro receptor binding, Alpha 2C; conditions: given in words, no number
Experimental: as §1

[4] = biological target: Alpha 1D (Homo sapiens, UniProt P25100); assay: In vitro receptor binding, Alpha 1D; conditions: given in words, no number
Experimental: as §1

[5] = biological target: 5-HT2c (Homo sapiens, UniProt P28335); assay: In vitro receptor binding, 5-HT2c; conditions: read-out: In vitro testing data (receptor binding affinity), 5-HT2c
Experimental: as §1

[6] = biological target: 5-HT6 (Homo sapiens, UniProt P50406); assay: In vitro receptor binding, 5-HT6; conditions: read-out: In vitro testing data (receptor binding affinity), 5-HT6
Experimental: as §1

[7] = biological target: Alpha 2B (Homo sapiens, UniProt P18089); assay: In vitro receptor binding, Alpha 2B; conditions: given in words, no number
Experimental: as §1

[8] = biological target: 5-HT2a (Homo sapiens, UniProt P28223); assay: In vitro receptor binding, 5-HT2a; conditions: read-out: In vitro testing data (receptor binding affinity), 5-HT2a
Experimental: as §1

[9] = biological target: M5 (Homo sapiens, UniProt P08912); assay: In vitro receptor binding, M5; conditions: read-out: In vitro testing data (receptor binding affinity), M5
Experimental: as §1

[10] = biological target: Alpha 1B (Homo sapiens, UniProt P35368); assay: In vitro receptor binding, Alpha 1B; conditions: given in words, no number
Experimental: as §1

[11] = biological target: M2 (Homo sapiens, UniProt P08172); assay: In vitro receptor binding, M2; conditions: read-out: In vitro testing data (receptor binding affinity), M2
Experimental: as §1

[12] = biological target: M4 (Homo sapiens, UniProt P08173); assay: In vitro receptor binding, M4; conditions: read-out: In vitro testing data (receptor binding affinity), M4
Experimental: as §1

[13] = biological target: 5-HT7 (Homo sapiens, UniProt P34969); assay: In vitro receptor binding, 5-HT7; conditions: read-out: In vitro testing data (receptor binding affinity), 5-HT7
Experimental: as §1

[14] = biological target: D2 (Homo sapiens, UniProt P14416); assay: In vitro receptor binding, D2; conditions: read-out: In vitro testing data (receptor binding affinity), D2
Experimental: as §1

[15] = biological target: M3 (Homo sapiens, UniProt P20309); assay: In vitro receptor binding, M3; conditions: read-out: In vitro testing data (receptor binding affinity), M3
Experimental: as §1

[16] = biological target: Alpha 2A (Homo sapiens, UniProt P08913); assay: In vitro receptor binding, Alpha 2A; conditions: given in words, no number
Experimental: as §1

[17] = biological target: Alpha 1A (Homo sapiens, UniProt P35348); assay: In vitro receptor binding, Alpha 1A; conditions: given in words, no number
Experimental: as §1

[18] = biological target: 5-HT1a (Homo sapiens, UniProt P08908); assay: In vitro receptor binding, 5-HT1a; conditions: given in words, no number
Experimental: as §1

[19] = tested on: pre-frontal cortex acetylcholine release; assay: In vivo microdialysis, pre-frontal cortex acetylcholine release; set-up: species or system male Sprague-Dawley rats; conditions: rat microdialysis (FIG. 13); LMD-00100t at the maximum dose tested, data not shown
Experimental: (§2) In vivo microdialysis studies were conducted according to established methods. In summary, two cannulae with microdialysis probes were implanted via stereotaxic surgery (one each into two separate brain regions), into the medial prefrontal cortex and nucleus accumbens of male Sprague-Dawley rats weighing from 250 g to 300 g. After recovery from surgery, a solution was circulated through the probes on test days collecting extracellular synaptic fluid at 30-minute intervals and delivering it to an HPLC for analysis of extracellular dopamine concentrations in real time following antipsychotic compound dosing. Simultaneously, an aliquot was taken and frozen for later mass spectrometric determination of acetylcholine concentrations.

[20] = tested on: nucleus accumbens dopamine release; assay: In vivo microdialysis, nucleus accumbens dopamine release; set-up: species or system male Sprague-Dawley rats; conditions: rat microdialysis; ceiling effect, increasing dose gave no additional release (FIG. 12)
Experimental: as §2

[21] = tested on: pre-frontal cortex dopamine release; assay: In vivo microdialysis, pre-frontal cortex dopamine release; set-up: species or system male Sprague-Dawley rats; conditions: rat microdialysis
Experimental: as §2

Chain of Alpha 1B (P35368 whole entry): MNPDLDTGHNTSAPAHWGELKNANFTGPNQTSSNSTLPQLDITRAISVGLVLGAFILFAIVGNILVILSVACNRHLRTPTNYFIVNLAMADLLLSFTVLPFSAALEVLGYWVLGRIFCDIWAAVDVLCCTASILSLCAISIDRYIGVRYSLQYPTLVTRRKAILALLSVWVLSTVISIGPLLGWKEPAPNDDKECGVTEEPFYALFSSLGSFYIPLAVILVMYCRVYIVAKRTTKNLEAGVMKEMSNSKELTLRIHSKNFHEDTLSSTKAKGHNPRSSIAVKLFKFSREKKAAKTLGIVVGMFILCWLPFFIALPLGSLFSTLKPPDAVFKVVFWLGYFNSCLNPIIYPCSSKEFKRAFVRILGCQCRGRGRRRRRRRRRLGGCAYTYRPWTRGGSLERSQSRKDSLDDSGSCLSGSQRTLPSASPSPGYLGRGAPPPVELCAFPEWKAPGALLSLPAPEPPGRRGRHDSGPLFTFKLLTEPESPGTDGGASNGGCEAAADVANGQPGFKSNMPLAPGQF
Chain of M2 (P08172 whole entry): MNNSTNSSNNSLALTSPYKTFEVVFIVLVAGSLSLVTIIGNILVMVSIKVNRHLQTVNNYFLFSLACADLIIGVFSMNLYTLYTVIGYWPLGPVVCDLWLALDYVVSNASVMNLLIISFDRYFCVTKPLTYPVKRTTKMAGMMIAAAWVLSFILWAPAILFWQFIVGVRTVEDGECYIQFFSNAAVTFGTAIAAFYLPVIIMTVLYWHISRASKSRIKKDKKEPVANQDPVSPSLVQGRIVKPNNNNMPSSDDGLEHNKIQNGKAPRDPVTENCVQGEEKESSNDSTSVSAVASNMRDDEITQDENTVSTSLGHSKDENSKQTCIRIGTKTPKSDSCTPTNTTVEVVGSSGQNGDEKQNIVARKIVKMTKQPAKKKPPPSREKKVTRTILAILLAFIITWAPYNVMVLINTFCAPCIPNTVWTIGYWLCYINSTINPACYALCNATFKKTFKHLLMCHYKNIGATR
Chain of Alpha 2B (P18089 whole entry): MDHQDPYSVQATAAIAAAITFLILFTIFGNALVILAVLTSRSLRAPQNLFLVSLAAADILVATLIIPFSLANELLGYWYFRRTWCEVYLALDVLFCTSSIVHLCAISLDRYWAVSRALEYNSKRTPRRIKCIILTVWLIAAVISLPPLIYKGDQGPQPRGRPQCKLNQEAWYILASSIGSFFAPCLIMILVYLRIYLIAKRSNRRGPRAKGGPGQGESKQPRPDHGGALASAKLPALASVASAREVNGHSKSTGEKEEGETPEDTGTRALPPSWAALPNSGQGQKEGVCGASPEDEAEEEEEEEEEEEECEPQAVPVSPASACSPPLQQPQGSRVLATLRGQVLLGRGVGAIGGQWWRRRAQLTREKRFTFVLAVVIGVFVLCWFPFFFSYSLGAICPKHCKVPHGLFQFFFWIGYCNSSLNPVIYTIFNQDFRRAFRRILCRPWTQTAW
Chain of M5 (P08912 whole entry): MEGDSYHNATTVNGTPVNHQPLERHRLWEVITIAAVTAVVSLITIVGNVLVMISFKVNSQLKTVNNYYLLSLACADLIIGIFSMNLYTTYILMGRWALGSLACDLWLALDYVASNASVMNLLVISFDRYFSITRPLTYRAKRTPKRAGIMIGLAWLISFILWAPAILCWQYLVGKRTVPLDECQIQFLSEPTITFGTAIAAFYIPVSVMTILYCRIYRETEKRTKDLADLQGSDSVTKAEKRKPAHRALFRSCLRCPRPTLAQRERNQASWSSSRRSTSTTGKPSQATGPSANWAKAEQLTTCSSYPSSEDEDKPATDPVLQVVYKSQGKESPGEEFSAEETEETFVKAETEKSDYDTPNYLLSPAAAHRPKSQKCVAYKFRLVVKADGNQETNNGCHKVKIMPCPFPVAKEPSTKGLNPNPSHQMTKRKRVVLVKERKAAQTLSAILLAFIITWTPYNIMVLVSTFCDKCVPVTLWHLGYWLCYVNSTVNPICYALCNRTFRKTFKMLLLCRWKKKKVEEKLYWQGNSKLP
Chain of Alpha 2A (P08913 whole entry): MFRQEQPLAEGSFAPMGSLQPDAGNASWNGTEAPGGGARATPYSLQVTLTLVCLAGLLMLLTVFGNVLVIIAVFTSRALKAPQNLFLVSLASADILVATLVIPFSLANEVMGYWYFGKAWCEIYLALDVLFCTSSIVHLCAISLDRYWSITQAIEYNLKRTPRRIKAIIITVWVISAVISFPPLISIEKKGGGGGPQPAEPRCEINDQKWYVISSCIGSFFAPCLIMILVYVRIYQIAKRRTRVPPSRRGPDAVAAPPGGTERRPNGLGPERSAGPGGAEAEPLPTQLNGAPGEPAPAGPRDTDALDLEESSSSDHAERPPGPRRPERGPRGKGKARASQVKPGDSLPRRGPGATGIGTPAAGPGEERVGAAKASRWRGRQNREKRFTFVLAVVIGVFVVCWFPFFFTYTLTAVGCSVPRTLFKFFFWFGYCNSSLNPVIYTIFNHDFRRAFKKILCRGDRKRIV
Chain of D2 (P14416 whole entry): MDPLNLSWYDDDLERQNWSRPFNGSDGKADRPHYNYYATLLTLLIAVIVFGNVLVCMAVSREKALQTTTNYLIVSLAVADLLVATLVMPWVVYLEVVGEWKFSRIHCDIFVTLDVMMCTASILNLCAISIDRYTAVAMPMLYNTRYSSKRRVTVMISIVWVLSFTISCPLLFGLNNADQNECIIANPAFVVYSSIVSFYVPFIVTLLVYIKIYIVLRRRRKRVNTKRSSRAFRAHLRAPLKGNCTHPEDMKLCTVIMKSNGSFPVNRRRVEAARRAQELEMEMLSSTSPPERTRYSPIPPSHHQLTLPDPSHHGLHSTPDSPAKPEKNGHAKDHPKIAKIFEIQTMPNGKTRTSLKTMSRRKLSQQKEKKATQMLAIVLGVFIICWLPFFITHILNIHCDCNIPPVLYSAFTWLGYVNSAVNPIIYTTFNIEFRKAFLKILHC
Chain of Alpha 1D (P25100 whole entry): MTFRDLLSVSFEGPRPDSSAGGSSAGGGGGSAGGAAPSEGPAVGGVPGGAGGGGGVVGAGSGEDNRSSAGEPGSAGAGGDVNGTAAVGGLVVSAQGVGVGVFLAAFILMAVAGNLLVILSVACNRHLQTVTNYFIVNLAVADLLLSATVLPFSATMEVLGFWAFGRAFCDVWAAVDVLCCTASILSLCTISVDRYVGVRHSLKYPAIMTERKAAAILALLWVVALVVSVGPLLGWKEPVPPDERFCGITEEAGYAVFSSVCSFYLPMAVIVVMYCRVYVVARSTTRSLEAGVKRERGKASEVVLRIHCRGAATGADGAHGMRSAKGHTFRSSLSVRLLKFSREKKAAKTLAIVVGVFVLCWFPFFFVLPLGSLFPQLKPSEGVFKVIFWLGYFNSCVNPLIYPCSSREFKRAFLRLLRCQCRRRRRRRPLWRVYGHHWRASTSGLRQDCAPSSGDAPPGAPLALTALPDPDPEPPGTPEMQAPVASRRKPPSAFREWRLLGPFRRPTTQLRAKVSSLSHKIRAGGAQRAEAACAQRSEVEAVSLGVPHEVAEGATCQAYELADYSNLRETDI
Chain of Alpha 1A (P35348 whole entry): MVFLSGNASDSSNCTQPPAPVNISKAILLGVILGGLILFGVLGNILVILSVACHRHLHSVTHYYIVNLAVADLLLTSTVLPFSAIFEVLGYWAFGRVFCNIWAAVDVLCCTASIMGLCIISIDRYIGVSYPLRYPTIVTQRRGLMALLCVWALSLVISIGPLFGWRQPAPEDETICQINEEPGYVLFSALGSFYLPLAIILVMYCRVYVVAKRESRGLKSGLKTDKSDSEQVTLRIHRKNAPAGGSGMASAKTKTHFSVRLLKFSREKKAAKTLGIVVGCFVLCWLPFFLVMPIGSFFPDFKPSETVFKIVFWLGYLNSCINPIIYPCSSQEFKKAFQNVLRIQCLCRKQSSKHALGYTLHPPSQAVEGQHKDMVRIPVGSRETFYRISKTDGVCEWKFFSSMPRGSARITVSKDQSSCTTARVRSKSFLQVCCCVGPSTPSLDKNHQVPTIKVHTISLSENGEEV
Chain of Alpha 2C (P18825 whole entry): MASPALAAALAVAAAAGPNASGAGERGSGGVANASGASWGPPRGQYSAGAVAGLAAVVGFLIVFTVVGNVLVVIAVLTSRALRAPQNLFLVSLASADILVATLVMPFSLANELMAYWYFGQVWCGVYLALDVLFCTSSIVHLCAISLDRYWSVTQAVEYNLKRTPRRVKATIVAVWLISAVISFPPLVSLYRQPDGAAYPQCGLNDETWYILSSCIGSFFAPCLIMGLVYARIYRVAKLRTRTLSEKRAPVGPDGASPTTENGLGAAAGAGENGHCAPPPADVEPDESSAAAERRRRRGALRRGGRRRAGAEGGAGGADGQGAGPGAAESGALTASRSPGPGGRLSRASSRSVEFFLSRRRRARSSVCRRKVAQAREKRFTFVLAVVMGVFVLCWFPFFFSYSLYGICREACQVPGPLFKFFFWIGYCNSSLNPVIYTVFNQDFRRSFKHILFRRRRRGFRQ
Chain of 5-HT6 (P50406 whole entry, species assumed): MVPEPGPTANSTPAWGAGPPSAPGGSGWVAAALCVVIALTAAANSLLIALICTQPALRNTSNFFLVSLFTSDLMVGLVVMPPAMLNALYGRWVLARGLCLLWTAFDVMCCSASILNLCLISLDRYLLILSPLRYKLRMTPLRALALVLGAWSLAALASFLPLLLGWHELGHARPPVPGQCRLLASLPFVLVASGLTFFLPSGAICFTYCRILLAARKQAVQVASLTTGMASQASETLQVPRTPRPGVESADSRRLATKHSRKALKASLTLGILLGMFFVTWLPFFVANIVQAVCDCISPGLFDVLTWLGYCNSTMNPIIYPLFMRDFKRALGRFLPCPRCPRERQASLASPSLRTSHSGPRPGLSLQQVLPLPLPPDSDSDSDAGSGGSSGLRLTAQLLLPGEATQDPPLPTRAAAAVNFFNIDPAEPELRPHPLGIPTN

| SMILES | Kd [1] [µM] | Kd [2] [µM] | In vitro testing data, Alpha 2C (yes) [3] | In vitro testing data, Alpha 1D (yes) [4] | Kd [5] [µM] | Kd [6] [µM] | In vitro testing data, Alpha 2B (yes) [7] | Kd [8] [µM] | Kd [9] [µM] | In vitro testing data, Alpha 1B (yes) [10] | Kd [11] [µM] | Kd [12] [µM] | Kd [13] [µM] | Kd [14] [µM] | Kd [15] [µM] | In vitro testing data, Alpha 2A (yes) [16] | In vitro testing data, Alpha 1A (yes) [17] | further results |
| --- | --- | --- | --- | --- | --- | --- | --- | --- | --- | --- | --- | --- | --- | --- | --- | --- | --- | --- |
| CCN1CCN(CCN2c3ccccc3Cc3ccccc32)CC1 [LMD-00060] | 1.36 | 0.255 | yes | yes | 2.74 | 1.52 | yes | 0.349 | 0.613 | yes | > 10 | 1.91 | 1.06 | 0.632 | 2.49 | yes | yes | – |
| CN1CCN(CCN2c3ccccc3Cc3ccccc32)CC1 [LMD-00076] | 0.707 | 0.185 | yes | yes | 0.968 | 0.652 | yes | 0.249 | 0.419 | yes | 3.33 | 1.1 | 1.14 | 0.692 | 0.702 | yes | yes | In vitro testing data, 5-HT1a (yes / dash) [18]: yes; cortical acetylcholine (ACh) efflux [19]: significant increase; nucleus accumbens dopamine release [20]: modest increase; pre-frontal cortex dopamine efflux on co-dosing with WAY 100635 ([21]; 5-HT1A silent antagonist WAY 100635 co-dosed with LMD-00076 (FIG. 11, curve labeled control)): blocked; pre-frontal cortex dopamine release ([21]; as a function of time following administration (FIG. 11, FIG. 14)): dose-dependent |
